Data reported in patent publication US20230081426A1, “COMPOUNDS AND METHODS FOR KRAS MODULATION AND INDICATIONS THEREFOR” (Plexxikon Inc., priority 2020, published 2023).

Assays:
[1] = biological target: T1, G12V-mutant human KRAS (amino acid residues 1-188) (Homo sapiens, UniProt P01116, G12V); experiment: KRAS Binding Competition Assay (AlphaScreen; biotinylated KRpep-2d analogue), G12V; conditions: geometric mean, read-out: KRAS GMean IC50 (uM) MUTATION: G12V
T1 construct: G12V-mutant human KRAS (amino acid residues 1-188) with FLAG tag was purified from E. coli; made in house; host or cells: E. coli

[2] = biological target: T2, G12D-mutant human KRAS (amino acid residues 1-188) (Homo sapiens, UniProt P01116, G12D); experiment: KRAS Binding Disruption Assay (AlphaScreen; biotinylated KRpep-2d analogue or RAF1-RBD), G12D; conditions: KRAS G12D; geometric mean; read-out: KRAS GMean IC50 (uM) MUTATION: G12D
T2 construct: G12D or G12C-mutant human KRAS (amino acid residues 1-188) with FLAG tag; made in house; host or cells: E. coli
How it was run: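 AlphaScreen readout: signal falls as compound displaces biotinylated KRpep-2d analogue or RAF1-RBD from mutant KRAS. Both partners at 5-20 nM, 1 h binding at 25° C, then 10 μg/mL Anti-Flag acceptor and streptavidin donor beads for 1 h. IC50 by nonlinear regression of % inhibition.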

Row | Compound | IC50 [1] [µM] | IC50 [2] [µM]
1 | OCC(O)c1nc(N2C[C@H]3CC[C@@H](C2)N3)c2ccc(-c3cc(O)cc4ccccc34)c(F)c2n1 (stereo partly drawn) [P-0459, 1-(4-((1R,5S)-3,8-diazabicyclo[3.2.1]octan-3-yl)-8-fluoro-7-(3-hydroxynaphthalen-1-yl)quinazolin-2-yl)ethane-1,2-diol] | 0.0001 to 10 | 0.0001 to 10
2 | CN1CC(=O)N(Cc2nc(N3C[C@H]4CC[C@@H](C3)N4)c3cc(Cl)c(-c4c(O)cccc4F)c(F)c3n2)C1=O [P-0460, 3-((4-((1R,5S)-3,8-diazabicyclo[3.2.1]octan-3-yl)-6-chloro-8-fluoro-7-(2-fluoro-6-hydroxyphenyl)quinazolin-2-yl)methyl)-1-methylimidazolidine-2,4-dione] | 10 to 100 | 10 to 100
3 | CN1CCC[C@H]1COc1nc(N2C[C@H]3CC[C@@H](C2)N3C(=O)CC#N)c2cc(F)c(-c3cc(O)cc4ccccc34)c(F)c2n1 [P-0464, 3-((1R,5S)-3-(6,8-difluoro-7-(3-hydroxynaphthalen-1-yl)-2-(((S)-1-methylpyrrolidin-2-yl)methoxy)quinazolin-4-yl)-3,8-diazabicyclo[3.2.1]octan-8-yl)-3-oxopropanenitrile] | 0.0001 to 10 | 10 to 100
4 | CN1CCC[C@H]1COc1nc(N2C[C@H]3CC[C@@H](C2)N3CC(=O)C2CCNCC2)c2ccc(-c3cc(O)cc4ccccc34)c(F)c2n1 [P-0467, 2-((1R,5S)-3-(8-fluoro-7-(3-hydroxynaphthalen-1-yl)-2-(((S)-1-methylpyrrolidin-2-yl)methoxy)quinazolin-4-yl)-3,8-diazabicyclo[3.2.1]octan-8-yl)-1-(piperidin-4-yl)ethan-1-one] | 10 to 100 | 0.0001 to 10
5 | CN1CCC[C@H]1COc1nc(N2C[C@H]3CC[C@@H](C2)N3C(=N)N)c2ccc(-c3cc(O)cc4ccccc34)c(F)c2n1 [P-0468, (1R,5S)-3-(8-fluoro-7-(3-hydroxynaphthalen-1-yl)-2-(((S)-1-methylpyrrolidin-2-yl)methoxy)quinazolin-4-yl)-3,8-diazabicyclo[3.2.1]octane-8-carboximidamide] | 10 to 100 | 0.0001 to 10
6 | CN1CCC[C@H]1COc1nc(N2C[C@H]3CC[C@@H](C2)N3c2cnccn2)c2ccc(-c3cc(O)cc4ccccc34)c(F)c2n1 [P-0469, 4-(8-fluoro-2-(((S)-1-methylpyrrolidin-2-yl)methoxy)-4-((1R,5S)-8-(pyrazin-2-yl)-3,8-diazabicyclo[3.2.1]octan-3-yl)quinazolin-7-yl)naphthalen-2-ol] | 100 to 1000 | 0.0001 to 10
7 | CN1CCC[C@H]1COc1nc(N2C[C@H]3CC[C@@H](C2)N3C(=O)Cc2cc[nH]n2)c2ccc(-c3cc(O)cc4ccccc34)c(F)c2n1 [P-0470, 1-((1R,5S)-3-(8-fluoro-7-(3-hydroxynaphthalen-1-yl)-2-(((S)-1-methylpyrrolidin-2-yl)methoxy)quinazolin-4-yl)-3,8-diazabicyclo[3.2.1]octan-8-yl)-2-(1H-pyrazol-3-yl)ethan-1-one] | 10 to 100 | 100 to 1000
8 | CN1CCC[C@H]1COc1nc(N2C[C@H]3CC[C@@H](C2)N3CC(=O)N2CCNCC2)c2ccc(-c3cc(O)cc4ccccc34)c(F)c2n1 [P-0471, 2-((1R,5S)-3-(8-fluoro-7-(3-hydroxynaphthalen-1-yl)-2-(((S)-1-methylpyrrolidin-2-yl)methoxy)quinazolin-4-yl)-3,8-diazabicyclo[3.2.1]octan-8-yl)-1-(piperazin-1-yl)ethan-1-one] | 100 to 1000 | 0.0001 to 10
9 | CN1CCC[C@H]1COc1nc(N2C[C@H]3CC[C@@H](C2)N3CC(O)CO)c2ccc(-c3cc(O)cc4ccccc34)c(F)c2n1 (stereo partly drawn) [P-0472, 3-((1R,5S)-3-(8-fluoro-7-(3-hydroxynaphthalen-1-yl)-2-(((S)-1-methylpyrrolidin-2-yl)methoxy)quinazolin-4-yl)-3,8-diazabicyclo[3.2.1]octan-8-yl)propane-1,2-diol] | 0.0001 to 10 | 0.0001 to 10
10 | CN1CCC[C@H]1COc1nc(N2C[C@H]3CC[C@@H](C2)N3CC(=O)Nc2ccccn2)c2ccc(-c3cc(O)cc4ccccc34)c(F)c2n1 [P-0475, 2-((1R,5S)-3-(8-fluoro-7-(3-hydroxynaphthalen-1-yl)-2-(((S)-1-methylpyrrolidin-2-yl)methoxy)quinazolin-4-yl)-3,8-diazabicyclo[3.2.1]octan-8-yl)-N-(pyridin-2-yl)acetamide] | 10 to 100 | 0.0001 to 10

More lines, now with the values ahead:

Row | IC50 [1] [µM] | IC50 [2] [µM] | Compound
11 | 0.0001 to 10 | 0.0001 to 10 | N#CCC(=O)N1[C@@H]2CC[C@H]1CN(c1nc(OCC34CCCN3CCC4)nc3c(F)c(-c4cc(O)cc5ccccc45)c(Cl)cc13)C2 [P-0461, 3-((1R,5S)-3-(6-chloro-8-fluoro-7-(3-hydroxynaphthalen-1-yl)-2-((tetrahydro-1H-pyrrolizin-7a(5H)-yl)methoxy)quinazolin-4-yl)-3,8-diazabicyclo[3.2.1]octan-8-yl)-3-oxopropanenitrile]
12 | 10 to 100 | 10 to 100 | Cc1cccc2c(O)nn(-c3ccc4c(N5C[C@H]6CC[C@@H](C5)N6)nc(OC[C@@H]5CCCN5C)nc4c3F)c12 [P-0462, 1-(4-((1R,5S)-3,8-diazabicyclo[3.2.1]octan-3-yl)-8-fluoro-2-(((S)-1-methylpyrrolidin-2-yl)methoxy)quinazolin-7-yl)-7-methyl-1H-indazol-3-ol]
13 | 10 to 100 | 0.0001 to 10 | Cc1cccc2cccc(-c3ccc4c(N5C[C@H]6CC[C@@H](C5)N6)nc(OC[C@@H]5CCCN5C)nc4c3F)c12 [P-0465, 4-((1R,5S)-3,8-diazabicyclo[3.2.1]octan-3-yl)-8-fluoro-7-(8-methylnaphthalen-1-yl)-2-(((S)-1-methylpyrrolidin-2-yl)methoxy)quinazoline]
14 | 10 to 100 | 0.0001 to 10 | Fc1c(-c2c[nH]c3ccc(Cl)c(F)c23)c(Cl)cc2c(N3C[C@H]4CC[C@@H](C3)N4)nc(OCC34CCCN3CCC4)nc12 [P-0466, 4-((1R,5S)-3,8-diazabicyclo[3.2.1]octan-3-yl)-6-chloro-7-(5-chloro-4-fluoro-1H-indol-3-yl)-8-fluoro-2-((tetrahydro-1H-pyrrolizin-7a(5H)-yl)methoxy)quinazoline]
15 | 100 to 1000 | 100 to 1000 | COc1ccc2c(-c3c(F)cc4c(N5C[C@H]6CC[C@@H](C5)N6)nc(OC[C@@H]5CCCN5C)nc4c3F)c[nH]c2c1 [P-0473, 4-((1R,5S)-3,8-diazabicyclo[3.2.1]octan-3-yl)-6,8-difluoro-7-(6-methoxy-1H-indol-3-yl)-2-(((S)-1-methylpyrrolidin-2-yl)methoxy)quinazoline]
16 | 10 to 100 | 0.0001 to 10 | Cc1c(-c2c(F)cc3c(N4C[C@H]5CC[C@@H](C4)N5)nc(OC[C@@H]4CCCN4C)nc3c2F)cccc1C(F)(F)F [P-0474, 4-((1R,5S)-3,8-diazabicyclo[3.2.1]octan-3-yl)-6,8-difluoro-7-(2-methyl-3-(trifluoromethyl)phenyl)-2-(((S)-1-methylpyrrolidin-2-yl)methoxy)quinazoline]
17 | 10 to 100 | 0.0001 to 10 | Fc1c(-c2c(C(F)(F)F)ccc3[nH]ncc23)ccc2c(N3C[C@H]4CC[C@@H](C3)N4)nc(OCC34CCCN3CCC4)nc12 [P-0506, 4-((1R,5S)-3,8-diazabicyclo[3.2.1]octan-3-yl)-8-fluoro-2-((tetrahydro-1H-pyrrolizin-7a(5H)-yl)methoxy)-7-(5-(trifluoromethyl)-1H-indazol-4-yl)quinazoline]
18 | 0.0001 to 10 | 0.0001 to 10 | CCc1cccc2[nH]cc(-c3ccc4c(N5C[C@H]6CC[C@@H](C5)N6)nc(OC[C@@]56CCCN5C[C@H](F)C6)nc4c3F)c12 [P-0511, 4-((1R,5S)-3,8-diazabicyclo[3.2.1]octan-3-yl)-7-(4-ethyl-1H-indol-3-yl)-8-fluoro-2-(((2R,7aS)-2-fluorotetrahydro-1H-pyrrolizin-7a(5H)-yl)methoxy)quinazoline]
19 | 100 to 1000 | 10 to 100 | Nc1cc(-c2c(F)cc3c(N4C[C@H]5CC[C@@H](C4)N5)nc(OCC45CCCN4CCC5)nc3c2F)ccc1Cl [P-0609, 5-(4-((1R,5S)-3,8-diazabicyclo[3.2.1]octan-3-yl)-6,8-difluoro-2-((tetrahydro-1H-pyrrolizin-7a(5H)-yl)methoxy)quinazolin-7-yl)-2-chloroaniline]
20 | 100 to 1000 | 0.0001 to 10 | Fc1c(-c2c[nH]c3ccc(C(F)(F)F)cc23)ccc2c(N3C[C@H]4CC[C@@H](C3)N4)nc(OCC34CCCN3CCC4)nc12 [P-0610, 4-((1R,5S)-3,8-diazabicyclo[3.2.1]octan-3-yl)-8-fluoro-2-((tetrahydro-1H-pyrrolizin-7a(5H)-yl)methoxy)-7-(5-(trifluoromethyl)-1H-indol-3-yl)quinazoline]
21 | 100 to 1000 | 10 to 100 | CC(C)(C)c1ccc2[nH]cc(-c3ccc4c(N5C[C@H]6CC[C@@H](C5)N6)nc(OCC56CCCN5CCC6)nc4c3F)c2c1 [P-0611, 4-((1R,5S)-3,8-diazabicyclo[3.2.1]octan-3-yl)-7-(5-(tert-butyl)-1H-indol-3-yl)-8-fluoro-2-((tetrahydro-1H-pyrrolizin-7a(5H)-yl)methoxy)quinazoline]
22 | 10 to 100 | 0.0001 to 10 | OCC1(COc2nc(N3C[C@H]4CC[C@@H](C3)N4)c3ccc(-c4cc(O)cc5ccccc45)c(F)c3n2)CCOCC1 [P-0612, 4-(4-((1R,5S)-3,8-diazabicyclo[3.2.1]octan-3-yl)-8-fluoro-2-((4-(hydroxymethyl)tetrahydro-2H-pyran-4-yl)methoxy)quinazolin-7-yl)naphthalen-2-ol]
